Experimental data reported in patent US20250188065A1, “LIGHT-CONTROLLED BIOORTHOGONAL TETRAZINE LIGATION” (The Regents of the University Of California, priority 2020, published 2025).
“Also recorded” adds a separate entry of the source. Blank lines part the entries; values can stand above or below the compound they belong to.

Columns and labels:
[1] = Stability of photocaged dihydrotetrazine in aqueous solution / PBS / cell lysate without irradiation; assay type: physicochemical; conditions: absence of irradiation, 37° C.
Source text: We initiated our studies by synthesizing photocaged dihydrotetrazines 1. Ideally, photocaged dihydrotetrazine 1 should be stable in aqueous solution and the uncaged dihydrotetrazine should rapidly air oxidize to tetrazine 2. With these criteria in mind, we chose 3-(but-3-yn-1-yl)-6-phenyl-[…]1,2,4,5-tetrazine as a model building block, which we reduced to the corresponding dihydrotetrazine. We decided to include a terminal alkyne so that the photocaged dihydrotetrazine could be conjugated to functional molecules by copper-catalyzed azide-alkyne cycloaddition. For the photocleavable protecting group, we decided to utilize 1-(2-nitrophenyl)ethyl carbamate, due to its sensitivity to visible light, and its previous use in cellular studies. […] In the absence of irradiation, 1a is stable in aqueous solution at 37° C. with open air for over 4 days. Having photocaged dihydrotetrazines 1 in hand, we next characterized product formation after visible light triggered decaging (FIG. 2A). […] The resulting dihydrotetrazine intermediate is spontaneously oxidized by air, generating the desired 3-(but-3-yn-1-yl)-6-phenyl-1,2,4,5-tetrazine 2a.
A photocaged dihydrotetrazine should be stable in aqueous solution and the dihydrotetrazine should rapidly be oxidized to tetrazine by air. With this hypothesis in mind, we synthesized photocaged dihydrotetrazine 1a from 3-(but-3-yn-1-yl)-6-phenyl-1,2,4,5-tetrazine, which could be converted to the corresponding dihydrotetrazine using the reductant thiourea dioxide (FIG. 1B). 1-(2-Nitrophenyl)ethyl carbamate was investigated as the photocleavable functional group, due to its sensitivity to visible blue light (28) and biocompatibility (29). […] We analyzed light-triggered tetrazine formation from photocaged dihydrotetrazine 1a (FIGS. 2A-2B). […] We measured a second-order rate constant of 101±3 M^−1 s^−1 between 2a and a model strained dienophile, trans-4-cycloocten-1-ol (TCO-OH), by monitoring the disappearance of the characteristic tetrazine visible absorption at 521 nm under pseudo first-order conditions (13).

[2] = Stability in 4-methylpiperidine/DMF solution (Fmoc deprotection conditions); assay type: physicochemical
Source text: Although tetrazine ligation is a widely used bioorthogonal tool, tetrazine-containing amino acid has been rarely explored in the solid-phase peptide synthesis (SPPS) due to dramatic degradations of tetrazines under the protection conditions, such as 4-methylpiperidine/DMF solution. Markedly, photocaged dihydrotetrazine 1a proves to be stable in the presence of 4-methylpiperidine/DMF solution, so that we were able to employ photocaged dihydrotetrazine-containing amino acid in SPPS and obtained the desired tetrazine-containing peptide in the late stage. Here we have synthesized unnatural amino acid photocaged dihydrotetrazine-lysine 1b (12 mg, 15 μmol) and obtained a five-amino-acid peptide 1c through practical SPPS in 49% yield (FIG. 3A). After irradiation of dihydrotetrazine-peptide 1c (10 μM) for 2 minutes in PBS at 37° C., tetrazine-peptide 2c could been readily achieved, which contains two common bioorthogonal groups, including an azido group and a tetrazine group.
Considering the stability of photocaged dihydrotetrazines, we asked if such groups could act as photoprotection moieties, masking latent tetrazines through harsh conditions that would normally be degradative. For example, in 4-methylpiperidine/DMF solution, 40% of tetrazine 2a degrades in 30 minutes. […] Therefore, we hypothesized that photocaged dihydrotetrazines would be tolerated during SPPS. […]

[3] = system: Hep 3B human liver cancer cells; experiment: Cell viability after light-activated tetrazine prodrug therapy; assay type: cell-based; conditions: for influence on cell viability, agent alone: 1a 8 μM or TCO-Dox 3c 5.5 μM alone; for influence on cell viability, agent alone with irradiation: LED light 2 minutes, 1a 8 μM, TCO-Dox 3c 5.5 μM or side product 4c 5.5 μM alone
Method: FIGS. 5A-5B. Light-activated tetrazine prodrug therapy in Hep 3B cancer cells. FIG. 5A: Application of light-controlled tetrazine ligation to release the chemotherapeutic doxorubicin in the presence of living Hep 3B cancer cells. Dox, doxorubicin. FIG. 5B: Cell viability of Hep 3B cancer cells after treatments with photocaged dihydrotetrazine 1a (8 μM), TCO-Dox 3c (5.5 μM), side product 4c (5.5 μM), and Dox 5a (5.5 μM) with or without irradiation by LED light (405 nm, 18 W) for 2 minutes, followed by incubation at 37° C. for 24 hours. Error bars indicate standard error of mean (SEM), which are measured from 3 replicates. Statistically significant differences in cell viability between no treatment and other means are indicated: **P<0.01. ns, not significant.
Based on the positive dual activation results obtained from the in vitro experiments, we next tested if light-triggered tetrazine ligation enabled prodrug therapy could be carried out in the presence of live cancer cells (FIG. 5B). […] Loss of cell viability was similar to that observed when cells were directly treated with Dox […] (5.5 μM) under the same conditions.
Based on the positive results obtained, we tested whether light-triggered drug delivery could be carried out in the presence of living cancer cells (FIG. 5B). […] However, upon irradiation with LED light (405 nm, 18W) for 2 minutes, followed by incubation for 24 hours, a 75.1±3% reduction of cell viability was observed. The loss of cell viability was similar to that observed when cells were directly treated with Dox 5a (5.5 μM) under the same conditions.

[4] = Second-order rate constant of tetrazine ligation with strained dienophile; conditions: with TCO-OH; disappearance of tetrazine absorption at 521 nm, pseudo first-order conditions
Source text: A photocaged dihydrotetrazine should be stable in aqueous solution and the dihydrotetrazine should rapidly be oxidized to tetrazine by air. With this hypothesis in mind, we synthesized photocaged dihydrotetrazine 1a from 3-(but-3-yn-1-yl)-6-phenyl-1,2,4,5-tetrazine, which could be converted to the corresponding dihydrotetrazine using the reductant thiourea dioxide (FIG. 1B). 1-(2-Nitrophenyl)ethyl carbamate was investigated as the photocleavable functional group, due to its sensitivity to visible blue light (28) and biocompatibility (29). After reacting the dihydrotetrazine intermediate with the selected photocleavable group, the desired product 1-(2-nitrophenyl)ethyl 6-(but-3-yn-1-yl)-3-phenyl-1,2,4,5-tetrazine-1(4H)-carboxylate photocaged dihydrotetrazine 1a was obtained. Nuclear magnetic resonance (NMR) studies confirmed that the secondary amine adjacent to the alkyl group of dihydrotetrazine 1a is functionalized. We analyzed light-triggered tetrazine formation from photocaged dihydrotetrazine 1a (FIGS. 2A-2B). […] We measured a second-order rate constant of 101±3 M^−1 s^−1 between 2a and a model strained dienophile, trans-4-cycloocten-1-ol (TCO-OH), by monitoring the disappearance of the characteristic tetrazine visible absorption at 521 nm under pseudo first-order conditions (13).

stable in aqueous solution (time) ([1]; open air): over 4 days
decomposition after 4 days of incubation ([1]; PBS or cell lysate): less than 1%
degradation over 1 day ([1]; PBS or cell lysate): not observed
SMILES: C#CCCC1=NNC(c2ccccc2)=NN1C(=O)OC(C)c1ccccc1[N+](=O)[O-] (centres unmarked) [1a, 1-(2-nitrophenyl)ethyl 6-(but-3-yn-1-yl)-3-phenyl-1,2,4,5-tetrazine-1(4H)-carboxylate]
stability in 4-methylpiperidine/DMF solution ([2]; 4-methylpiperidine/DMF solution): stable; also recorded: no detectable degradation
influence on cell viability, agent alone [3]: no influence on cell viability
influence on cell viability, agent alone with irradiation [3]: no influence on cell viability

degradation in 4-methylpiperidine/DMF solution ([2]; 30 minutes): 40%
SMILES: C#CCCc1nnc(-c2ccccc2)nn1 [2a, 3-(but-3-yn-1-yl)-6-phenyl-1,2,4,5-tetrazine]
second-order rate constant [4]: 101 ± 3 M⁻¹ s⁻¹

SMILES: COc1cccc2c1C(=O)c1c(O)c3c(c(O)c1C2=O)C[C@@](O)(C(=O)CO)C[C@@H]3O[C@H]1C[C@H](N)[C@H](O)[C@H](C)O1 [Dox 5a, doxorubicin, reference compound]
loss of cell viability compared with irradiated 1a + TCO-Dox 3c mixture ([3]; direct treatment with Dox 5.5 μM, same conditions): similar

SMILES: COc1cccc2c1C(=O)c1c(O)c3c(c(O)c1C2=O)C[C@@](O)(C(=O)CO)C[C@@H]3O[C@H]1C[C@H](NC(=O)OC2/C=C/CCCCC2)[C@H](O)[C@H](C)O1 (some centres unmarked) [TCO-Dox 3c]
influence on cell viability, agent alone [3]: no influence on cell viability
influence on cell viability, agent alone with irradiation [3]: no influence on cell viability
